Assay results from article PMC12480751, “A quantitative high-throughput screening pipeline to identify small molecule inhibitors of Chikungunya nsP2 protease” (Scientific Reports, 2025).
Entries after “also recorded” stand apart in the source; their conditions may differ. Like-named read-outs stand apart in the source and are kept apart here.

Columns and labels:
nsP2 protease = target: T1, nsP2 protease (Chikungunya virus, UniProt Q8JUX6); assay: cell-based; assay type: cell-based; settings: for Emax: HEK293, read-out: Cell-based % Efficacy
T1 construct: expressed in transfected cells; host or cells: HEK293T (the results text says HEK293), transient co-transfection in pcDNA3.1(+)
T1 sequence (Q8JUX6 755-1333 limits assumed): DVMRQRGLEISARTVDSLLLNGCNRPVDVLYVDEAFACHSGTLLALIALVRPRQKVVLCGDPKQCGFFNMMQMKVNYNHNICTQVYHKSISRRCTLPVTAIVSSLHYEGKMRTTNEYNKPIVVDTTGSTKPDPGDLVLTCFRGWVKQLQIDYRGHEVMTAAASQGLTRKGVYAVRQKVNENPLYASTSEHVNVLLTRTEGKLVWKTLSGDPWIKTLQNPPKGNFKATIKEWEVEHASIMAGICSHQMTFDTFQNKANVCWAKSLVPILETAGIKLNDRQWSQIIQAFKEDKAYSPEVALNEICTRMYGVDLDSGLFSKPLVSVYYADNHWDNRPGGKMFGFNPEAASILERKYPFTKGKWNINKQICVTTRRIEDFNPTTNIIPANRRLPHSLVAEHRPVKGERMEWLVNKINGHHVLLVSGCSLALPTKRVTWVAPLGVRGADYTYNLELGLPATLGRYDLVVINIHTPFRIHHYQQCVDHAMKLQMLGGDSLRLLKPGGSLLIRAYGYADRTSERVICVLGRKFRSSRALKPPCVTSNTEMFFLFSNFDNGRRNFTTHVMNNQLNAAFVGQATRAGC

CHIKV nsP2pro = CHIKV nsP2pro (Chikungunya virus, UniProt Q8JUX6); assay: FRET-based nsP2pro proteolytic assay with peptide 2 (nsp3/4 site), 1,536-well qHTS; assay type: biochemical; settings: for selectivity for nsP2pro versus Papain, hFurin and HCV NS3-4A: based on biochemical counterscreens; for Emax: read-out: Enzymatic % Efficacy; for inhibitory activity against CHIKV nsP2: biochemical assays
Papain = Papain (Carica papaya, UniProt P00784)
Chain of Papain (P00784 134-345): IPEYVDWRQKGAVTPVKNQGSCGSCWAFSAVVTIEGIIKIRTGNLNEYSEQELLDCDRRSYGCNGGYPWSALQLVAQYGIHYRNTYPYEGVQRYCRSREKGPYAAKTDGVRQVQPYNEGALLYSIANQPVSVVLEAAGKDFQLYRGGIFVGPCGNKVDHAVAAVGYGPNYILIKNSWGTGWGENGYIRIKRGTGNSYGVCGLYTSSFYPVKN

human Furin = human Furin (Homo sapiens, UniProt P09958); assay: human Furin FRET selectivity counterscreen; assay type: biochemical
Chain of human Furin (P09958 108-794): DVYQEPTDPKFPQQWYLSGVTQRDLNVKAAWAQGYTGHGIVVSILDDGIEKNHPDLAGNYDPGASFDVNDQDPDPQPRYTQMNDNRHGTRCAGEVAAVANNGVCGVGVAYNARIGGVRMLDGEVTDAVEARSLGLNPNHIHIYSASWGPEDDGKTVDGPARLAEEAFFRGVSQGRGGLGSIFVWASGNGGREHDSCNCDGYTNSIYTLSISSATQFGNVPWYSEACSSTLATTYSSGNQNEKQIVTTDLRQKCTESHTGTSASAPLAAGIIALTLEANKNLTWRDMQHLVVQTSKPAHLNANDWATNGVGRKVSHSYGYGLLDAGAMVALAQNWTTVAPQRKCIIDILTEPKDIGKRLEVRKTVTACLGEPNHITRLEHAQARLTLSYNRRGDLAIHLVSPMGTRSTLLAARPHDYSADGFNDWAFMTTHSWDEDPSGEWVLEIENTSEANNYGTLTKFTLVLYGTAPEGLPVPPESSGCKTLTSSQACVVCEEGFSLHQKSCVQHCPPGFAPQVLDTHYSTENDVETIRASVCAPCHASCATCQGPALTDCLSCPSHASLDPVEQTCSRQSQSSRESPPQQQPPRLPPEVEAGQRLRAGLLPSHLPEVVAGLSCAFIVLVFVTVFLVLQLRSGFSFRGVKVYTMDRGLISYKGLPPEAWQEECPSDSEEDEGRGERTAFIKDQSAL

[1] = system: CHIKV 181/25 vaccine strain; assay: CHIKV181/25 infection assay in SNB-19 cells, high-content immunofluorescence
nsP2pro = nsP2pro (Chikungunya virus, UniProt Q8JUX6); settings: for nsP2pro Vmax: 150 nM nsP2pro (peptide 2) or 2 μM nsP2pro (peptide 3); for Km: read-out: nsP2pro Km; for Km / nsP2pro kcat: substrate peptide
FL nsP2 = FL nsP2 (Chikungunya virus, UniProt Q8JUX6, C1333A); settings: for full-length nsP2 Vmax: 150 nM nsP2 (peptide 2) or 2 μM nsP2 (peptide 3); for Km: read-out: FL nsP2 Km; for Km / FL nsP2 kcat: substrate peptide
[2] = CellTiter-Glo cell viability assay of SNB19 cells; assay type: cell-based, human; settings: human, SNB19 cells
Description: Cells were harvested in growth media and dispensed (5 µL /1,000 cells/well) onto 1536-well white plates (Aurora #EWB041000A) using a Multidrop Combi. Control and test compounds were added (25 nL) using an Echo 650 liquid handler. Plates were incubated for 48 h at 37 °C and 5% CO2 and then equilibrated to room temperature prior to addition of 4 µL /well of CellTiter-Glo (Promega) using a Multidrop Combi. Plates were subsequently incubated for 15 min at room temperature and centrifuged for 1 min at 1000 rpm. Luminescence was read on a ViewLux imager equipped with clear filters.

[3] = nsP2pro biochemical assay, 13 cell-active hits
[4] = nsP2pro biochemical assay, 13 cell-active hits, read-out: Enzymatic IC50

Cc1cccc(C(=O)Nc2ccc(N3CCN(c4ccc(F)cc4)CC3)c(C(=O)O)c2)c1 [NCGC00137618]
Cell-based % Efficacy (nsP2 protease): 55.5% | AC50 (nsP2 protease; read-out: Cell-based AC50): 32.6 µM | Enzymatic % Efficacy (CHIKV nsP2pro; [3]): -83% | IC50 (CHIKV nsP2pro; [4]): 10 µM

COc1cccc(C(=O)CCN[C@@H](C)[C@H](O)c2ccccc2)c1 [Oxyfedrine]
AC50 (nsP2 protease): 2.6 µM | Emax (nsP2 protease): 60.3% | IC50 (CHIKV nsP2pro): 1.3 µM | selectivity for nsP2pro versus Papain, hFurin and HCV NS3-4A (CHIKV nsP2pro): selective hits; also recorded: specific to nsP2pro | Emax (CHIKV nsP2pro): -88.6%

CCCCN(CCCC)C(=S)[S-].CCCCN(CCCC)C(=S)[S-].[Zn+2] [Zinc dibutyldithiocarbamate]
activity against Papain (Papain): potent inhibitor | activity against Furin (human Furin): either weak or had no effect | activity against HCV NS3-4A (HCV NS3-4A): either weak or had no effect | inhibitory activity against CHIKV nsP2 (CHIKV nsP2pro): potent inhibitor | effect on CHIKV infection ([1]; SNB-19 cells): difficult to distinguish from cell toxicity

Cc1ccc(OCCn2c(CCNC(=O)c3ccccc3N)nc3ccccc32)cc1 [NCGC00241881]
Cell-based % Efficacy (nsP2 protease): 179% | AC50 (nsP2 protease; read-out: Cell-based AC50): > 50 µM | selectivity for nsP2pro versus Papain, hFurin and HCV NS3-4A (CHIKV nsP2pro): not selective | Enzymatic % Efficacy (CHIKV nsP2pro; [3]): -106.1% | IC50 (CHIKV nsP2pro; [4]): 1.1 µM

Nc1ccn([C@@H]2O[C@H](CO)[C@@H](O)C2(F)F)c(=O)n1 [Gemcitabine]
concentrations showing consistent CHIKV inhibition ([1]; SNB-19 cells, infection inhibition control): under 1 µM

CCCS(=O)(=O)c1ncc(Cl)c(C(=O)N(Cc2ccccc2)Cc2ccco2)n1 [NCGC00115102]
selectivity for nsP2pro versus Papain, hFurin and HCV NS3-4A (CHIKV nsP2pro): specific to nsP2pro

CC(NC(=O)[C@H](Cc1ccccc1)NC(=O)OCc1ccccc1)C(=O)CF (stereo partly shown) [Z-FA-FMK]
activity against Papain (Papain): potently inhibiting | inhibitory activity against CHIKV nsP2 (CHIKV nsP2pro): minimal inhibitory activity

C#CC(=O)N(c1ccc(OC)cc1OC)C(C(=O)NCC(=O)OCC)c1cccs1 (stereo not shown) [PACMA 31]
selectivity for nsP2pro versus Papain, hFurin and HCV NS3-4A (CHIKV nsP2pro): selective hits

CCOc1ccc(NC(=O)c2c(NC(=O)Cc3ccccc3)sc3c2CCCCC3)cc1 [NCGC00098557]
Cell-based % Efficacy (nsP2 protease): 101.3% | AC50 (nsP2 protease; read-out: Cell-based AC50): 12.9 µM | Enzymatic % Efficacy (CHIKV nsP2pro; [3]): -80.1% | IC50 (CHIKV nsP2pro; [4]): 7.9 µM

Cc1cccc(-c2noc([C@@H]3Cc4nc[nH]c4CN3C(=O)NC3CCCCC3)n2)c1 [NCGC00400417]
Cell-based % Efficacy (nsP2 protease): 75.7% | AC50 (nsP2 protease; read-out: Cell-based AC50): 47.2 µM | selectivity for nsP2pro versus Papain, hFurin and HCV NS3-4A (CHIKV nsP2pro): not selective | Enzymatic % Efficacy (CHIKV nsP2pro; [3]): -107.3% | IC50 (CHIKV nsP2pro; [4]): 2.1 µM

O=C(O[C@@H]1Cc2c(O)cc(O)cc2O[C@@H]1c1cc(O)c(O)c(O)c1)c1cc(O)c(O)c(O)c1 [EGCG, Epigallocatechin gallate]
effect on Nluc reporter signal in cellular nsp2 proteolytic assay (nsP2 protease): did not have an effect | inhibitory activity against CHIKV nsP2 (CHIKV nsP2pro): inhibited nsp2pro activity in vitro | effect on CHIKV infection ([1]; SNB-19 cells): strongly prevented CHIKV infection

C[C@H](N)[C@H](O)c1ccc(O)c(O)c1 [Levonordefrin]
AC50 (nsP2 protease): 0.4 µM | Emax (nsP2 protease): 71.5% | activity against HCV NS3-4A (HCV NS3-4A): also inhibited | IC50 (CHIKV nsP2pro): 7.7 µM | selectivity for nsP2pro versus Papain, hFurin and HCV NS3-4A (CHIKV nsP2pro): not selective | Emax (CHIKV nsP2pro): -74.9%

Nc1nc2c(s1)CCN(Cc1ccc(Cl)cc1)CC2 [B-HT 958]
AC50 (nsP2 protease): 0.23 µM | Emax (nsP2 protease): 114% | IC50 (CHIKV nsP2pro): 7.9 µM | selectivity for nsP2pro versus Papain, hFurin and HCV NS3-4A (CHIKV nsP2pro): specific to nsP2pro | Emax (CHIKV nsP2pro): -62.1%

O=c1oc2c3c(ccc2c2ccccc12)OCN(Cc1ccccc1Cl)C3 [NCGC00116374]
AC50 (nsP2 protease): 14.5 µM | Emax (nsP2 protease): 112% | IC50 (CHIKV nsP2pro): 4 µM | selectivity for nsP2pro versus Papain, hFurin and HCV NS3-4A (CHIKV nsP2pro): specific to nsP2pro | Emax (CHIKV nsP2pro): -103%

5-TAMRA-DELRLDRAGGYIFSS-K-QSY7 [Peptide 2]
nsP2pro Vmax (nsP2pro): 0.26 µM/min | Km (nsP2pro): 6.3 µM | nsP2pro kcat (nsP2pro): 214.2 ± 13.1 x 10^-4 sec^-1 | full-length nsP2 Vmax (FL nsP2): 0.2 µM/min | Km (FL nsP2): 1.1 µM | FL nsP2 kcat (FL nsP2): 167.2 ± 10.4 s⁻¹

TMR-DELRLDRAGC/APSYR-K-QSY7 [Peptide 3]
nsP2pro Vmax (nsP2pro): 1.03 µM/min | Km (nsP2pro): 81.9 µM | nsP2pro kcat (nsP2pro): 85.5 ± 4.1 x 10^-4 sec^-1 | full-length nsP2 Vmax (FL nsP2): 0.38 µM/min | Km (FL nsP2): 37.5 µM | FL nsP2 kcat (FL nsP2): 32.1 ± 2.1 s⁻¹

O=c1oc2c3c(ccc2c2ccccc12)OCN(Cc1ccc(Cl)cc1)C3 [NCGC00116366]
AC50 (nsP2 protease): 36.5 µM | Emax (nsP2 protease): 309% | IC50 (CHIKV nsP2pro): 4.5 µM | Emax (CHIKV nsP2pro): -114%

CCC[C@H](NC(=O)[C@@H]1[C@H]2CCC[C@H]2CN1C(=O)[C@@H](NC(=O)[C@@H](NC(=O)c1cnccn1)C1CCCCC1)C(C)(C)C)C(=O)C(=O)NC1CC1 [Telaprevir]
activity against Papain (Papain): potently inhibiting | AC50 (nsP2 protease): 31.6 µM | Emax (nsP2 protease): 213% | CC50 at 48 h [2]: 11.6 µM | activity against HCV NS3-4A (HCV NS3-4A): potently inhibiting; also recorded: also inhibited | IC50 (CHIKV nsP2pro): 3.5 µM | selectivity for nsP2pro versus Papain, hFurin and HCV NS3-4A (CHIKV nsP2pro): not selective | Emax (CHIKV nsP2pro): -123%

CC(C)N(CCC(=O)c1ccc2ccccc2c1)Cc1ccccc1 [ZM39923]
selectivity for nsP2pro versus Papain, hFurin and HCV NS3-4A (CHIKV nsP2pro): selective hits

COC(=O)CC[C@H](NC(=O)[C@H](CC(=O)OC)NC(=O)OCc1ccccc1)C(=O)N[C@H](C(=O)N[C@@H](CC(=O)OC)C(=O)CF)C(C)C [Z-DEVD-FMK]
inhibitory activity against CHIKV nsP2 (CHIKV nsP2pro): did not identify

C/C(=N\NC(=N)N)c1cc(NC(=O)CCCCCCCCC(=O)Nc2cc(/C(C)=N/NC(=N)N)cc(/C(C)=N/NC(=N)N)c2)cc(/C(C)=N/NC(=N)N)c1 [Semapimod]
activity against Furin (human Furin): weak activity | AC50 (nsP2 protease): 2.2 µM | Emax (nsP2 protease): 137% | CC50 at 48 h [2]: 20.6 µM | activity against HCV NS3-4A (HCV NS3-4A): also inhibited | IC50 (CHIKV nsP2pro): 6.3 µM | selectivity for nsP2pro versus Papain, hFurin and HCV NS3-4A (CHIKV nsP2pro): not selective | Emax (CHIKV nsP2pro): -106% | IC50 ([1]; Chikungunya virus, SNB-19, 44 h, read-out: IC50, prevention of CHIKV infection): 1.6 µM | potency on CHIKV infection relative to effect on cell viability ([1]; IC50 infection vs CC50 SNB19): > tenfold
